Measurements reported in US9920030B2 (priority 2006, dated 2018).
Like-named read-outs stand apart in the source and are kept apart here.

Key:
[1] = tested on: Plasmopara vilicola (the causal agent of grape downy mildew); assay: Test A: grape downy mildew, test suspension sprayed on grape seedlings after inoculation, visual disease rating; format: in vivo; details: for pest or weed control at 40 ppm: Plasmopara, 144 h, read-out: Percent Disease Control, Test A
How it was run: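 Curative spray: spores applied first, plants kept 24 h in saturated air at 20 °C and dried before treatment, then 5 days at 20 °C plus 24 h saturated. Suspension: acetone (3% of volume) in 1:1 acetone/water, 250 ppm Trem 014, sprayed to run-off (200 ppm ≈ 500 g/ha); visual 0–100 control rating.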

[2] = tested on: Phytophthora infestans (the causal agent of tomato late blight); assay: whole plant or invertebrate; format: in vivo; details: for pest or weed control at 40 ppm: Phytophthora infestans, 144 h, read-out: Percent Disease Control, Test B
[3] = tested on: Phytophthora infestans (the causal agent of tomato late blight); assay: whole plant or invertebrate; format: in vivo; details: for pest or weed control at 40 ppm: Phytophthora infestans, 96 h, read-out: Percent Disease Control, Test C
[4] = compounds without asterisk (application rate not given), 100 = 100% disease control, 0 = no control relative to the controls

Row | SMILES | Percent Disease Control, Test A ([1]; * tested at 40 ppm) | Percent Disease Control, Test B ([2]; * tested at 40 ppm) | Percent Disease Control, Test C ([3]; * tested at 40 ppm) | further results
1 | Cc1cc(C(F)(F)F)nn1CC(=O)N1CCC(c2nc(C3=NOC(C)(c4ccccc4)C3)cs2)CC1 (centres unmarked) [Compound 15, 1-[4-[4-(4,5-dihydro-5-methyl-5-phenyl-3-isoxazolyl)-2-thiazolyl]-1-piperidinyl]-2-[5-methyl-3-(trifluoromethyl)-1H-pyrazol-1-yl]ethanone] |  |  |  | melting point: 97 to 100 °C
2 | Cc1cc(C(F)(F)F)nn1CC(=O)N1CCC(c2nc(C3=NOC4c5ccccc5CCC34)cs2)CC1 (centres unmarked) [Compound 16, 2-[5-methyl-3-(trifluoromethyl)-1H-pyrazol-1-yl]-1-[4-[4-(3a,4,5,9b-tetrahydronaphth[2,1-d]isoxazol-3-yl)-2-thiazolyl]-1-piperidinyl]ethanone] |  |  |  | melting point: 162 to 165 °C
3 | COc1ccc(C2CC(c3csc(C4CCN(C(=O)Cn5nc(C(F)(F)F)cc5C)CC4)n3)=NO2)cc1 (centres unmarked) [Compound 18, 1-[4-[4-[4,5-dihydro-5-(4-methoxyphenyl)-3-isoxazolyl]-2-thiazolyl]-1-piperidinyl]-2-[5-methyl-3-(trifluoromethyl)-1H-pyrazol-1-yl]ethanone] |  |  |  | pest or weed control at 40 ppm ([1]; * tested at 40 ppm): 100%; pest or weed control at 40 ppm [2]: 100%; pest or weed control at 40 ppm [3]: 99%; melting point: 119 to 124 °C
4 | CCc1cc(C(F)(F)F)nn1CC(=O)N1CCC(c2nc(C3=NOC(c4ccccc4)C3)cs2)CC1 (centres unmarked) [Compound 19, 1-[4-[4-(4,5-dihydro-5-phenyl-3-isoxazolyl)-2-thiazolyl]-1-piperidinyl]-2-[5-ethyl-3-(trifluoromethyl)-1H-pyrazol-1-yl]ethanone] |  |  |  | pest or weed control at 40 ppm ([1]; * tested at 40 ppm): 100%; pest or weed control at 40 ppm [2]: 100%; pest or weed control at 40 ppm [3]: 99%; melting point: 128 to 133 °C
5 | O=C(Cn1nc(C(F)(F)F)cc1C(F)(F)F)N1CCC(c2nc(C3=NOC(c4ccccc4)C3)cs2)CC1 (centres unmarked) [Compound 22, 2-[3,5-bis(trifluoromethyl)-1H-pyrazol-1-yl]-1-[4-[4-(4,5-dihydro-5-phenyl-3-isoxazolyl)-2-thiazolyl]-1-piperidinyl]ethanone] |  |  |  | pest or weed control at 40 ppm ([1]; * tested at 40 ppm): 100%; pest or weed control at 40 ppm [2]: 100%; pest or weed control at 40 ppm [3]: 99%; melting point: 130 to 133 °C
6 | CCOC(=O)c1cc(C)nn1CC(=O)N1CCC(c2nc(C3=NOC(c4ccccc4)C3)cs2)CC1 (centres unmarked) [Compound 238] | 100% | 100% | 100% | 
7 | CCOc1cc(C(F)(F)F)nn1CC(=O)N1CCC(c2nc(C3=NOC(c4ccccc4)C3)cs2)CC1 (centres unmarked) [Compound 241] | 100% | 100% | 100% | 
8 | Cc1cc(C(F)(F)F)nn1CC(=O)N1CCC(c2nc(N3CC(c4ccccc4)OC3=O)cs2)CC1 (centres unmarked) [Compound 242] | 99% | 100% | 85% | 
9 | Cc1cc(C(F)(F)F)nn1CC(=O)N1CCC(c2nc(C3=NOC(N4C(=O)CCCC4=O)C3)cs2)CC1 (centres unmarked) [Compound 243] |  |  |  | Percent Disease Control, Test A ([1]; ** tested at l0 ppm): 99%; Percent Disease Control, Test B ([2]; ** tested at l0 ppm): 100%; Percent Disease Control, Test C ([3]; ** tested at l0 ppm): 100%
10 | Cc1cc(C(F)(F)F)nn1CC(=O)N1CCC(c2nc(C3=NOC(n4oc(=O)n(C(C)C)c4=O)C3)cs2)CC1 (centres unmarked) [Compound 244] | 98% | 100% | 99% | 
11 | Cc1cc(C(F)(F)F)nn1CC(=O)N1CCC(c2nc(-c3ccc(F)cc3)cs2)CC1 [Compound 245] | 99% | 74% | 0% | 
12 | Cc1cc(C(F)(F)F)nn1CC(=O)N1CCC(c2nc(-c3ccc(C(C)(C)C)cc3)cs2)CC1 [Compound 246] | 99% | 79% | 40% | 
13 | Cc1cc(C(F)(F)F)nn1CC(=O)N1CCC(c2nc(-c3ccc(C#N)cc3)cs2)CC1 [Compound 247] | 99% | 100% | 88% | 
14 | Cc1cc(C(F)(F)F)nn1CC(=O)N1CCC(c2nc(-c3ccc([N+](=O)[O-])cc3)cs2)CC1 [Compound 248] | 90% | 73% | 26% | 
15 | Cc1cc(C(F)(F)F)nn1CC(=O)N1CCC(c2nc(-c3ccc(Br)cc3)cs2)CC1 [Compound 249] | 99% | 64% | 0% | 
16 | Cc1cc(C(F)(F)F)nn1CC(=O)N1CCC(c2nc(-c3ccc(I)cc3)cs2)CC1 [Compound 250] | 86% | 58% | 0% | 
17 | Cc1cc(C(F)(F)F)nn1CC(=O)N1CCC(c2nc(C3=NOC4(CCCc5cc(C#N)ccc54)C3)cs2)CC1 (centres unmarked) [Compound 251] | 99% | 100% | 99% | 

Row | SMILES | Percent Disease Control, Test A ([1]; * tested at 40 ppm) | Percent Disease Control, Test B ([2]; * tested at 40 ppm) | Percent Disease Control, Test C ([3]; * tested at 40 ppm) | further results
18 | Cc1cc(C(F)(F)F)nn1CC(=O)N1CCC(c2nc(C3=NOC4(CC(=O)N(c5ccccc5)C4=O)C3)cs2)CC1 (centres unmarked) [Compound 252] | 88% | 91% | 97% | 
19 | C[C@]1(c2ccccc2)CC(c2csc(C3CCN(C(=O)Cn4nc(C(F)(F)F)cc4C(F)(F)F)CC3)n2)=NO1 [Compound 260, 2-[3,5-bis(triflyoromethyl)-1H-pyrazol-1-yl]-1-[4-[4-[(5R)-4,5-dihydro-5-methyl-5-phenyl-3-isoxazolyl]-2-thiazolyl]-1-piperidinyl]ethanone] |  |  |  | Percent Disease Control, Test A ([1]; ** tested at l0 ppm): 100%; Percent Disease Control, Test B ([2]; ** tested at l0 ppm): 100%; Percent Disease Control, Test C ([3]; ** tested at l0 ppm): 96%
20 | Cc1cc(C(F)(F)F)nn1CC(=O)N1CCC(c2nc(C3=NOC(Cc4ccccc4S(N)(=O)=O)C3)cs2)CC1 (centres unmarked) [Compound 262] | 79% | 100% | 91% | 
21 | CC(=O)Oc1ccccc1C1CC(c2csc(C3CCN(C(=O)Cn4nc(C(F)(F)F)cc4C)CC3)n2)=NO1 (centres unmarked) [Compound 263] | 99% | 84% | 83% | 
22 | Cc1cc(C(F)(F)F)nn1CC(=O)N1CCC(c2nc(C3=NOC(N(C)C(=O)c4ccccc4)C3)cs2)CC1 (centres unmarked) [Compound 264] | 99% | 100% | 88% | 
23 | Cc1cc(C(F)(F)F)nn1CC(=O)N1CCC(c2nc(C3=NOC4(CC(=O)N(C)C4=O)C3)cs2)CC1 (centres unmarked) [Compound 267] |  |  |  | Percent Disease Control, Test A [1, 4]: 100%; Percent Disease Control, Test B [2, 4]: 100%; Percent Disease Control, Test C [3, 4]: 100%
24 | CCc1ccc(-c2csc(C3CCN(C(=O)Cn4nc(C(F)(F)F)cc4C)CC3)n2)cc1 [Compound 268] |  |  |  | Percent Disease Control, Test A [1, 4]: 100%; Percent Disease Control, Test B [2, 4]: 100%; Percent Disease Control, Test C [3, 4]: 88%
25 | Cc1cc(C(F)(F)F)nn1CC(=O)N1CCC(c2nc(-c3ccc(OC(F)(F)F)cc3)cs2)CC1 [Compound 269] |  |  |  | Percent Disease Control, Test A [1, 4]: 100%; Percent Disease Control, Test B [2, 4]: 100%; Percent Disease Control, Test C [3, 4]: 0%
26 | COC(=O)c1ccc(-c2csc(C3CCN(C(=O)Cn4nc(C(F)(F)F)cc4C)CC3)n2)cc1 [Compound 270] |  |  |  | Percent Disease Control, Test A [1, 4]: 99%; Percent Disease Control, Test B [2, 4]: 83%; Percent Disease Control, Test C [3, 4]: 0%
27 | CCCc1ccc(-c2csc(C3CCN(C(=O)Cn4nc(C(F)(F)F)cc4C)CC3)n2)cc1 [Compound 271] |  |  |  | Percent Disease Control, Test A [1, 4]: 100%; Percent Disease Control, Test B [2, 4]: 100%; Percent Disease Control, Test C [3, 4]: 72%
28 | CSc1ccc(-c2csc(C3CCN(C(=O)Cn4nc(C(F)(F)F)cc4C)CC3)n2)cc1 [Compound 272] |  |  |  | Percent Disease Control, Test A [1, 4]: 100%; Percent Disease Control, Test B [2, 4]: 100%; Percent Disease Control, Test C [3, 4]: 100%
29 | Cc1cc(C(F)(F)F)nn1CC(=O)N1CCC(c2nc(-c3ccc(C(C)C)cc3)cs2)CC1 [Compound 273] |  |  |  | Percent Disease Control, Test A [1, 4]: 100%; Percent Disease Control, Test B [2, 4]: 100%; Percent Disease Control, Test C [3, 4]: 90%
30 | Cc1cc(C(F)(F)F)nn1CC(=O)N1CCC(c2nc(-c3ccc(CC(C)C)cc3)cs2)CC1 [Compound 274] |  |  |  | Percent Disease Control, Test A [1, 4]: 99%; Percent Disease Control, Test B [2, 4]: 100%; Percent Disease Control, Test C [3, 4]: 100%
31 | Cc1cc(C(F)(F)F)nn1CC(=O)N1CCC(c2nc(C3=NOC(n4c(=O)n(C)c5ccccc54)C3)cs2)CC1 (centres unmarked) [Compound 275] |  |  |  | Percent Disease Control, Test A ([1]; ** tested at l0 ppm): 99%; Percent Disease Control, Test B ([2]; ** tested at l0 ppm): 100%; Percent Disease Control, Test C ([3]; ** tested at l0 ppm): 98%
32 | Cc1cc(C(F)(F)F)nn1CC(=O)N1CCC(c2nc(C3=NOC(CN4C(=O)c5ccccc5C4=O)C3)cs2)CC1 (centres unmarked) [Compound 278] | 94% | 100% | 99% | 
33 | Cc1cc(C(F)(F)F)nn1CC(=O)N1CCC(c2nc(C3=NOC(N4C(=O)N(C)C(=O)C(C)(C)C4=O)C3)cs2)CC1 (centres unmarked) [Compound 279] | 100% | 100% | 99% | 
34 | Cc1cc(C(F)(F)F)nn1CC(=O)N1CCC(c2nc(C3=NOC(n4c(=O)sc5ccc(Cl)cc54)C3)cs2)CC1 (centres unmarked) [Compound 280] |  |  |  | Percent Disease Control, Test A ([1]; ** tested at l0 ppm): 92%; Percent Disease Control, Test B ([2]; ** tested at l0 ppm): 100%; Percent Disease Control, Test C ([3]; ** tested at l0 ppm): 98%
